{"source": "patent US20220411380A1", "about": "“ACID ADDITION SALT OF RORy REGULATOR” (JIANGSU HENGRUI MEDICINE CO., LTD., priority 2019, published 2022)", "key": {"RORγ LBD-GST tagged": {"biological_target": "T1, RORγ LBD-GST tagged (Homo sapiens, UniProt P51449)", "T1 construct": "RORγ LBD-GST tagged (Cat No. RORC-114H, Creative Biomart); purchased Creative Biomart RORC-114H", "T1 sequence (P51449 269-508 limits assumed)": "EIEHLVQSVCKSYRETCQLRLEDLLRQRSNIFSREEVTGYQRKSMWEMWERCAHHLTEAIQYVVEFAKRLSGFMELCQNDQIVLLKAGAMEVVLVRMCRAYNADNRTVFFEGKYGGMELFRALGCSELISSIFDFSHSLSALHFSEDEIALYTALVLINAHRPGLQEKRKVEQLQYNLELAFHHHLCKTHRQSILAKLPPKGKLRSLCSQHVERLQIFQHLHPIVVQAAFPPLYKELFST", "assay": "LanthaScreen TR-FRET RORγ-LBD and co-activation peptide biochemical assay", "conditions": "Fluorescein-D22 coactivator, read-out: RORγ coactivation assay (IC50)", "procedure": "Test Example 1. Biochemical Assay of LanthaScreen TR-FRET RORγ-LBD and Co-Activation Peptide\nComplete TR-FRET Coregulator Buffer D was prepared by diluting 1 M DTT with TR-FRET Coregulator Buffer D to a final concentration of 5 mM DTT. The compounds were diluted in Complete TR-FRET Coregulator Buffer D. The solutions were serially 7-fold diluted from an initial concentration of 3 μM to the 7th concentration. 10 μL of the dilutions was added to each well of the 384-well plate. For negative and positive controls, 10 μL of Complete TR-FRET Coregulator Buffer D was added.\nA RORγ LBD solution was prepared using Complete TR-FRET Coregulator Buffer D. The final concentration of the RORγ LBD solution in each reaction was 25 ng. Other than the negative wells receiving 5 μL of Complete TR-FRET Coregulator Buffer D, 5 μL of the RORγ LBD solution was added to the remaining wells of the 384-well assay plate.\nComplete TR-FRET Coregulator Buffer D was used to prepare a solution containing 0.6 μM Fluorescein-D22 and 8 nM Tbanti-GST antibody, and 5 μL of the prepared solution was added to all wells of the 384-well assay plate. […]\nThe plate was measured on a Tecan Infinite M1000 plate reader at wavelengths of 520 nm and 495 nm. IC50 values were calculated using GraphPad Prism by plotting log compound concentration versus percentage inhibition."}, "[1]": {"system": "IL-17A production in human peripheral blood mononuclear cells", "assay": "Inhibition of cytokine IL-17A production in human peripheral blood mononuclear cells", "assay_type": "cell-based", "conditions": "72 h; human PBMC, cytostim, 3 days, IL-17A ELISA", "procedure": "Test Example 2. Assay for Inhibiting Cytokine IL-17A Production in Human Peripheral Blood Mononuclear Cells\nFrozen human peripheral blood mononuclear cells (PBMCs) were rapidly thawed in a pre-warmed lymphocyte medium and centrifuged at 1000 rpm for 10 min. The cell culture supernatant was discarded, and the cells were gently suspended in the TexMACS medium and counted. T cell activating reagent cytostim (10 μL/mL) was added to the cell suspension in certain proportions, and then the cells were seeded in a 96-well cell culture plate at a density of 1×10^5 PBMCs/well. Test compounds were diluted in gradient using TexMACS medium and added to the treatment wells in 2-3 replicates. Negative control wells containing cells only without cytostim were prepared to obtain background readings. The cell culture plate was incubated in a 5% carbon dioxide/37° C. incubator for 3 days. Cell culture supernatant was collected 3 days after treatment and centrifuged to remove the suspended matter. IL-17A in the supernatant was then quantified using an IL-17A enzyme-linked immunosorbent assay kit. […]\nIn the calculation equation, inhibition % is inhibition rate; OD(NC) is the reading of cells in negative control groups with no cytostim and no compound; OD(PC) is the reading of cells in positive control groups with cytostim but no compound; OD(compound) is the reading of cells with cytostim and compound."}, "[2]": {"assay": "Long-term/accelerated stability study of amorphous form of compound of formula II", "assay_type": "physicochemical", "procedure": "The amorphous form of the compound of formula II (Example 4) was subjected to a long-term (25° C., 60% RH)/accelerated (40° C., 75% RH) stability study with a period of 3 months."}, "[3]": {"assay": "Influencing factor study of amorphous form of compound of formula II", "assay_type": "physicochemical", "procedure": "A sample of the amorphous form of the compound of formula II (Example 4) was let stand open to examine the stability of the sample in conditions of heating (40° C. and 60° C.), illumination (4500 Lux) and high humidity (RH 75% and RH 90%) in a period of 30 days."}, "[4]": {"assay": "Long-term/accelerated stability study of amorphous form of compound of formula II", "assay_type": "physicochemical", "remark": "listed apart in the source"}}}
{"smiles": "NC(=O)C[C@H](c1ccc(S(=O)(=O)CC2CC2)cc1)c1nc2cc(-c3ccccc3OC(F)F)c(Cl)cc2[nH]1", "note": "(single isomer, unassigned) [compound of formula II]", "values": [{"measurement": "IC50", "setting": "RORγ LBD-GST tagged", "value": 13, "unit": "nM"}, {"measurement": "IC50", "setting": "[1]", "value": 10, "unit": "nM"}]}
{"smiles": "NC(=O)C[C@H](c1ccc(S(=O)(=O)CC2CC2)cc1)c1nc2cc(-c3ccccc3OC(F)F)c(Cl)cc2[nH]1", "note": "[amorphous form of compound of formula II]", "values": [{"measurement": "Stability (conclusion of long-term/accelerated study)", "setting": "[2]; 25° C., 60% RH and 40° C., 75% RH, 3 months", "value": "good chemical stability"}, {"measurement": "Chiral purity Initial", "setting": "[2]; 25° C., 60% RH, Initial", "value": 99.2}, {"measurement": "Purity Initial", "setting": "[2]; 25° C., 60% RH, Initial", "value": 99.87}, {"measurement": "Purity (%) Month 1", "setting": "[2]; 25° C., 60% RH", "value": 99.86, "unit": "%"}, {"measurement": "Purity (%) Month 2", "setting": "[2]; 25° C., 60% RH, Month 2", "value": 99.86, "unit": "%"}, {"measurement": "Chiral purity Initial", "setting": "[2]; 40° C., 75% RH, Initial", "value": 99.2}, {"measurement": "Purity (%) Month 1", "setting": "[2]; 40° C., 75% RH", "value": 99.87, "unit": "%"}, {"measurement": "Chiral purity (%) Month 3", "setting": "[2]; 40° C., 75% RH, Month 3", "value": 99.1, "unit": "%"}, {"measurement": "Purity (%) Month 3", "setting": "[2]; 40° C., 75% RH, Month 3", "value": 99.88, "unit": "%"}, {"measurement": "Amorphous form Purity (%)", "setting": "[3]; 40° C., 5 days", "value": 99.93, "unit": "%"}, {"measurement": "Color and appearance", "setting": "[3]; 40° C., 5 days", "value": "White solid"}, {"measurement": "Amorphous form Purity (%)", "setting": "[3]; 40° C., 10 days", "value": 99.90, "unit": "%"}, {"measurement": "Chiral purity", "setting": "[3]; 40° C., 10 days", "value": 99.4}, {"measurement": "Color and appearance", "setting": "[3]; 40° C., 10 days", "value": "White solid"}, {"measurement": "Amorphous form Purity (%)", "setting": "[3]; 40° C., 30 days", "value": 99.92, "unit": "%"}, {"measurement": "Chiral purity", "setting": "[3]; 40° C., 30 days", "value": 99.5}, {"measurement": "Color and appearance", "setting": "[3]; 40° C., 30 days", "value": "White solid"}, {"measurement": "Amorphous form Purity (%)", "setting": "[3]; 60° C., 5 days", "value": 99.95, "unit": "%"}, {"measurement": "Color and appearance", "setting": "[3]; 60° C., 5 days", "value": "White solid"}, {"measurement": "Amorphous form Purity (%)", "setting": "[3]; 60° C., 10 days", "value": 99.95, "unit": "%"}, {"measurement": "Chiral purity", "setting": "[3]; 60° C., 10 days", "value": 99.4}, {"measurement": "Color and appearance", "setting": "[3]; 60° C., 10 days", "value": "White solid"}, {"measurement": "Amorphous form Purity (%)", "setting": "[3]; 60° C., 30 days", "value": 99.95, "unit": "%"}, {"measurement": "Chiral purity", "setting": "[3]; 60° C., 30 days", "value": 99.4}, {"measurement": "Color and appearance", "setting": "[3]; 60° C., 30 days", "value": "White solid"}, {"measurement": "Amorphous form Purity (%)", "setting": "[3]; 4500 Lux, 5 days", "value": 99.91, "unit": "%"}, {"measurement": "Color and appearance", "setting": "[3]; 4500 Lux, 5 days", "value": "White solid"}, {"measurement": "Amorphous form Purity (%)", "setting": "[3]; 4500 Lux, 10 days", "value": 99.91, "unit": "%"}, {"measurement": "Chiral purity", "setting": "[3]; 4500 Lux, 10 days", "value": 99.3}, {"measurement": "Color and appearance", "setting": "[3]; 4500 Lux, 10 days", "value": "White solid"}, {"measurement": "Amorphous form Purity (%)", "setting": "[3]; 4500 Lux, 30 days", "value": 99.93, "unit": "%"}, {"measurement": "Chiral purity", "setting": "[3]; 4500 Lux, 30 days", "value": 99.3}, {"measurement": "Color and appearance", "setting": "[3]; 4500 Lux, 30 days", "value": "White solid"}, {"measurement": "Stability (conclusion of influencing factor study)", "setting": "[3]; 30 days, illumination, 40° C., 60° C., high humidity of 75% and 90%", "value": "good chemical stability"}, {"measurement": "Amorphous form Purity (%)", "setting": "[3]; Initial, 0 days", "value": 99.91, "unit": "%"}, {"measurement": "Chiral purity", "setting": "[3]; Initial, 0 days", "value": 99.4}, {"measurement": "Color and appearance", "setting": "[3]; Initial, 0 days", "value": "White solid"}, {"measurement": "Amorphous form Purity (%)", "setting": "[3]; RH 75%, 5 days", "value": 99.92, "unit": "%"}, {"measurement": "Color and appearance", "setting": "[3]; RH 75%, 5 days", "value": "White solid"}, {"measurement": "Weight gain (%)", "setting": "[3]; RH 75%, 5 days", "value": 10.42, "unit": "%"}, {"measurement": "Amorphous form Purity (%)", "setting": "[3]; RH 75%, 10 days", "value": 99.90, "unit": "%"}, {"measurement": "Chiral purity", "setting": "[3]; RH 75%, 10 days", "value": 99.3}, {"measurement": "Color and appearance", "setting": "[3]; RH 75%, 10 days", "value": "White solid"}, {"measurement": "Weight gain (%)", "setting": "[3]; RH 75%, 10 days", "value": 13.2, "unit": "%"}, {"measurement": "Amorphous form Purity (%)", "setting": "[3]; RH 75%, 30 days", "value": 99.90, "unit": "%"}, {"measurement": "Chiral purity", "setting": "[3]; RH 75%, 30 days", "value": 99.4}, {"measurement": "Color and appearance", "setting": "[3]; RH 75%, 30 days", "value": "White solid"}, {"measurement": "Weight gain (%)", "setting": "[3]; RH 75%, 30 days", "value": 23.24, "unit": "%"}, {"measurement": "Amorphous form Purity (%)", "setting": "[3]; RH 90%, 5 days", "value": 99.91, "unit": "%"}, {"measurement": "Color and appearance", "setting": "[3]; RH 90%, 5 days", "value": "White solid"}, {"measurement": "Weight gain (%)", "setting": "[3]; RH 90%, 5 days", "value": 21.67, "unit": "%"}, {"measurement": "Amorphous form Purity (%)", "setting": "[3]; RH 90%, 10 days", "value": 99.92, "unit": "%"}, {"measurement": "Chiral purity", "setting": "[3]; RH 90%, 10 days", "value": 99.4}, {"measurement": "Color and appearance", "setting": "[3]; RH 90%, 10 days", "value": "White solid"}, {"measurement": "Weight gain (%)", "setting": "[3]; RH 90%, 10 days", "value": 26.49, "unit": "%"}, {"measurement": "Amorphous form Purity (%)", "setting": "[3]; RH 90%, 30 days", "value": 99.89, "unit": "%"}, {"measurement": "Chiral purity", "setting": "[3]; RH 90%, 30 days", "value": 99.4}, {"measurement": "Color and appearance", "setting": "[3]; RH 90%, 30 days", "value": "White solid"}, {"measurement": "Weight gain (%)", "setting": "[3]; RH 90%, 30 days", "value": 37.24, "unit": "%"}, {"measurement": "Chiral purity Initial", "setting": "[4]; 5° C., Initial", "value": 99.2}, {"measurement": "Purity Initial", "setting": "[4]; 5° C., Initial", "value": 99.87}, {"measurement": "Purity (%) Month 1", "setting": "[4]; 5° C., Month 1", "value": 99.86, "unit": "%"}, {"measurement": "Purity (%) Month 2", "setting": "[4]; 5° C.", "value": 99.86, "unit": "%"}, {"measurement": "Chiral purity (%) Month 3", "setting": "[4]; 5° C.", "value": 99.1, "unit": "%"}, {"measurement": "Purity (%) Month 3", "setting": "[4]; 5° C.", "value": 99.85, "unit": "%"}, {"measurement": "Chiral purity (%) Month 3", "setting": "[4]; 25° C., 60% RH", "value": 99.2, "unit": "%"}, {"measurement": "Purity (%) Month 3", "setting": "[4]; 25° C., 60% RH", "value": 99.85, "unit": "%"}, {"measurement": "Purity Initial", "setting": "[4]; 40° C., 75% RH, Initial", "value": 99.87}, {"measurement": "Purity (%) Month 2", "setting": "[4]; 40° C., 75% RH", "value": 99.86, "unit": "%"}]}
